The source of these data is PMC8037418, “Outlining In Vitro and In Silico Cholinesterase Inhibitory Activity of Twenty-Four Natural Products of Various Chemical Classes: Smilagenin, Kokusaginine, and Methyl Rosmarinate as Emboldening Inhibitors” (Molecules, 2021).

Converted amounts (≈) assume the structure as drawn. Read-outs that look alike come from different tables or passages of the source.

In assay [1] the target is T1, AChE (Homo sapiens, UniProt P22303). The assay can be described thus: biochemical. The conditions noted are these: for inhibition at 100 µg/mL: read-out: ChE Inhibition (Inhibition % ± S.D. at 100 µg/mL) AChE. On the procedure:
(§1) Inhibition of AChE and BChE was determined by Ellman’s method with slight modifications. To the reaction mixture, 140 µL of […] sodium phosphate buffer (pH 8), 20 µL of DTNB, 20 µL of enzyme (either AChE or BChE) and 20 µL of the samples to be tested was added later incubated for 15 min at 25 °C. About 10 µL of […] or butyrylthiocholine chloride which act as substrates to react with DTNB forming 5-thio-2-nitrobenzoate anion, that formed a yellow-colored complex, was added into the incubated sample. The absorbance is measured at 417 nm using a 96-well ELISA microplate reader (VersaMax, Molecular Devices, San Jose, CA, USA) Galanthamine was used the reference drug.
(§2) The measurements and calculations were evaluated by using Softmax PRO 4.3.2.LS software. Percentage of inhibition of AChE/BChE/TYR was determined by comparison of rates of reaction of test samples relative to blank samples. Extent of the enzymatic reaction was calculated based on the following equation: I% = (C-T)/C × 100, where I% is the activity of the enzyme as percent inhibition. E value expresses the effect of the test sample or the positive control on AChE/BChE/TYR enzyme activity articulated as the percentage of the remaining activity in the presence of test sample or positive control. C value is the absorbance of the control solvent (blank) in the presence of enzyme, where T is the absorbance of the tested sample (plant extract or positive control in the solvent) in the presence of enzyme.

In assay [2] the target is T2, BChE (Homo sapiens, UniProt P06276). The assay can be described thus: Microtiter (Ellman) assay for BChE inhibition. The conditions noted are these: for inhibition at 100 µg/mL: read-out: ChE Inhibition (Inhibition % ± S.D. at 100 µg/mL) BChE. In kind it is biochemical. On the procedure: as §1, §2
T2 sequence (P06276 29-602): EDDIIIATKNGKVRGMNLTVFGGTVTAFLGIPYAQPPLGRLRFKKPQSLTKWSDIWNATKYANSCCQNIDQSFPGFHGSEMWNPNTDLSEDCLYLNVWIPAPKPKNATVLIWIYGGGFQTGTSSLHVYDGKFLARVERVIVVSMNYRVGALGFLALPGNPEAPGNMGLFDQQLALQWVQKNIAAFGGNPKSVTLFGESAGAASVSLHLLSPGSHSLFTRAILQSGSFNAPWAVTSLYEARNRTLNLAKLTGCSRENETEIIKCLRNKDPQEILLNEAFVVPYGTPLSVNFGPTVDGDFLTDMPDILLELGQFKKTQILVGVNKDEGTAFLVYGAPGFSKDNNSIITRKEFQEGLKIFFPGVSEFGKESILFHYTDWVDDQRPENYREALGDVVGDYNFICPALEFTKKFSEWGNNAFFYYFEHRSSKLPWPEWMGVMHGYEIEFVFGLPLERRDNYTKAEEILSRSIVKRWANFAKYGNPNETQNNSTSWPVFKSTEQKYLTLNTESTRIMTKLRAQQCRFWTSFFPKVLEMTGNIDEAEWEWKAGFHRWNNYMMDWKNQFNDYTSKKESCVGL
Assay [3] has as its system AChE of electric eel origin. The conditions noted are these: cited from earlier work.
In assay [4] the target is T1, AChE. The note with it: cited from earlier work.
Assay [5] has as its target T2, BChE. The conditions noted are these: cited from earlier work.
[6] abbreviates: at 100 µg/mL, n: 3, '-' = No inhibition.
The mark [7] stands for this setting: at 100 μg/mL, from Verbascum xanthophoeniceum and V. mucronatum.

T1 sequence (P22303 32-614): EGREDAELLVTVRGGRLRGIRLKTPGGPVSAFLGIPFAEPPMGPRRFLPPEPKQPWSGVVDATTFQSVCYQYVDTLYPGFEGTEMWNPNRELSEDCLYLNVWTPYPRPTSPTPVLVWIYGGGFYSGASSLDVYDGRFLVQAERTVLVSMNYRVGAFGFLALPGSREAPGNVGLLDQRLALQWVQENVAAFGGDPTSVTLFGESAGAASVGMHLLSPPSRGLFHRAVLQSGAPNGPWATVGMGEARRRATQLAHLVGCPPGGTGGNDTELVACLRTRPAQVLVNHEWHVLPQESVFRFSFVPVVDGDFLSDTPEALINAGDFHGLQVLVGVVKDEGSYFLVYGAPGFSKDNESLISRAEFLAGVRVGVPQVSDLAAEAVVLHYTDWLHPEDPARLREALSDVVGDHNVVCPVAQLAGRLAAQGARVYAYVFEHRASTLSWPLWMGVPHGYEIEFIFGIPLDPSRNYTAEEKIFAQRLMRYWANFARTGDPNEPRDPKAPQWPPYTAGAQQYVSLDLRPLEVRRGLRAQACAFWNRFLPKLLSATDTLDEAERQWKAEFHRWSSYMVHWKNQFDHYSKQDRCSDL

As to `COc1cc(C=CC(=O)OC2C(COC3OCC(O)(CO)C3O)OC(OCCc3ccc(O)c(O)c3)C(O)C2OC2OC(C)C(O)C(O)C2O)ccc1O` (stereo not drawn) [Alyssonoside], the values for the inhibition at 100 µg/mL on AChE [1] (setting [6]) and on BChE [2] (setting [6]) were below 0% and 13 ± 2.07%, respectively.

Take `CC(C)(O)[C@@H]1CC[C@](C)([C@H]2[C@@H](O)C[C@@]3(C)[C@@H]4C[C@H](O[C@@H]5O[C@H](CO)[C@@H](O)[C@H](O)[C@H]5O)[C@H]5C(C)(C)[C@@H](O[C@@H]6OC[C@@H](O)[C@H](O)[C@H]6O)CC[C@@]56C[C@@]46CC[C@]23C)O1` [Astragaloside IV]: the inhibition at 100 µg/mL stood at 4.8 ± 0.05% at AChE [1] (setting [6]) and 6.62 ± 2.72% on BChE [2].

As for `CC(=O)OC1C(O)COC(OC2CCC34CC35CCC3(C)C(C6(C)CCC(C(C)(C)O)O6)C(O)CC3(C)C5CC(OC3OC(CO)C(O)C(O)C3O)C4C2(C)C)C1OC(C)=O` (stereo not drawn) [Astragaloside I], the inhibition at 100 µg/mL is below 0% on AChE [1] (setting [6]) and 8.38 ± 1.28% on BChE [2].

In the case of `CC(C)(O)[C@@H]1CC[C@](C)([C@H]2[C@@H](O)C[C@@]3(C)[C@@H]4C[C@H](O[C@@H]5O[C@H](CO)[C@@H](O)[C@H](O)[C@H]5O)[C@H]5C(C)(C)[C@@H](O[C@@H]6OC[C@@H](O)[C@H](O)[C@H]6O[C@@H]6O[C@H](CO)[C@@H](O)[C@H](O)[C@H]6O)CC[C@@]56C[C@@]46CC[C@]23C)O1` [Astragaloside VI], the inhibition at 100 µg/mL at AChE [1] (setting [6]) stood at 6.23 ± 2.82%; at BChE [2] it was 7.72 ± 0.53%.

As to `CC(=O)OC1C(O)COC(OC2CCC34CC35CCC3(C)C(C6(C)CCC(C(C)(C)O)O6)C(O)CC3(C)C5CC(OC3OCC(O)C(O)C3O)C4C2(C)C)C1OC(C)=O` (stereo not drawn) [Astrasieversianin II], the inhibition at 100 µg/mL on AChE [1] (setting [6]) is 8.01 ± 0.48%; on BChE [2] it was 13.6 ± 1.79%.

For the compound `CC(C)(O)C1CCC(C)(C2C(O)CC3(C)C4CC(OC5OCC(O)C(O)C5O)C5C(C)(C)C(OC6OCC(O)C(O)C6O)CCC56CC46CCC23C)O1` (stereo not drawn) [Astrasieversianin X], the inhibition at 100 µg/mL was determined as 8.6 ± 0.91% on AChE [1] (setting [6]) and 10.1 ± 2.34% at BChE [2].

Turning to `CC(CCC(O)C(C)(C)O)C1C(O)CC2(C)C3CC(OC4OC(CO)C(O)C(O)C4O)C4C(C)(C)C(OC5OCC(O)C(O)C5O)CCC45CC35CCC12C` (stereo not drawn) [Cyclocanthoside E], the inhibition at 100 µg/mL was 2.18 ± 1.81% on AChE [1] (setting [6]) and 5.35 ± 1.82% at BChE [2].

In the case of `CC(CCC(O)C(C)(C)O)C1C(O)CC2(C)C3CC(OC4OC(CO)C(O)C(O)C4O)C4C(C)(C)C(OC5OCC(O)C(O)C5OC5OC(CO)C(O)C(O)C5O)CCC45CC35CCC12C` (stereo not drawn) [Cyclocanthoside G], the figures for the inhibition at 100 µg/mL at AChE [1] (setting [6]) and at BChE [2] were 6.85 ± 0.72% and 8.23 ± 0.24%, respectively.

For `C[C@@H]1CC[C@@]2(OC1)O[C@H]1C[C@H]3[C@@H]4CC=C5C[C@@H](O)CC[C@]5(C)[C@H]4CC[C@]3(C)[C@H]1[C@@H]2C` [Diosgenin], the inhibition at 100 µg/mL is 4.31 ± 0.37% at AChE [1] (setting [6]) and 8.12 ± 2.64% on BChE [2]. The “IC50 AChE” value in assay [3] is 103.60 µg/mL (≈ 250 µM).

Consider `COc1ccc2c3c1O[C@H]1C[C@@H](O)C=C[C@@]31CCN(C)C2` [Galanthamine HBr, reference compound], for which the inhibition at 100 µg/mL at BChE [2] stood at 60.3 ± 1.36%.

For `C[C@@H]1CC[C@@]2(OC1)O[C@H]1C[C@H]3[C@@H]4CC[C@H]5C[C@@H](O)CC[C@]5(C)[C@H]4CC(=O)[C@]3(C)[C@H]1[C@@H]2C` [Hecogenin], the “ChE Inhibition (Inhibition % ± S.D. at 100 µg/mL) AChE” value on AChE [1] (setting [6]) was 25.36 ± 1.11%. The inhibition at 100 µg/mL on AChE [1] (setting [6]) was 25%; on BChE [2] it was 17.3 ± 1.84%.

As for `COC(=O)C1=COC(OC2OC(CO)C(O)C(O)C2O)C2C(C)(O)CCC12O` (stereo not drawn) [Ipolamide], the inhibition at 100 µg/mL on AChE [1] (setting [6]) was below 0%; on BChE [2] (setting [6]), 12.4 ± 2.28%.

Consider `COc1cc2nc3occc3c(OC)c2cc1OC` [Kokusaginine], for which the IC50 – broadly, the point on the concentration scale where inhibition reaches its midpoint – against AChE [1] is 271 µM; at BChE [2], 237 µM. Also, the inhibition at 100 µg/mL on AChE [1] (setting [6]) was determined as 62.4 ± 3.2%; at BChE [2] (setting [6]) it was 67.4 ± 3.1%.

For the compound `COC(=O)C1=COC(OC2OC(CO)C(O)C(O)C2O)C2C1(O)CC(O)C2(C)O` (stereo not drawn) [Lamiide], the figures for the inhibition at 100 µg/mL on AChE [1] (setting [6]) and on BChE [2] (setting [6]) were below 0% and 8.77 ± 0.92%, respectively.

With `O=C(O)C1OC(Oc2cc(O)c3c(=O)cc(-c4ccc(O)c(O)c4)oc3c2)C(O)C(O)C1O` (stereo not drawn) [Luteolin-7-O-glucuronide], the inhibition at 100 µg/mL on AChE [1] (setting [6]) and on BChE [2] was below 0% throughout.

With `CC(=O)OC1C(OC(CCC(C)C2CCC3(C)C4C(O)CC5C(C)(C)C(OC6OC(C)C(O)C(O)C6O)CC(O)C56CC46CCC23C)C(C)(C)O)OCC(O)C1O` (stereo not drawn) [Macrophyllosaponin A], the inhibition at 100 µg/mL worked out at 9.69 ± 0.85% at AChE [1] (setting [6]) and 12.2 ± 1.83% at BChE [2].

`CC(CCC(OC1OCC(O)C(O)C1O)C(C)(C)O)C1CCC2(C)C3C(O)CC4C(C)(C)C(OC5OC(C)C(O)C(O)C5O)CC(O)C45CC35CCC12C` (stereo not drawn) [Macrophyllosaponin B]: the inhibition at 100 µg/mL at AChE [1] (setting [6]) was 13.2 ± 0.92%; at BChE [2] it was 12.2 ± 1.16%.

As for `CC(CCC(O)C(C)(C)OC1OCC(O)C(O)C1O)C1CCC2(C)C3C(O)CC4C(C)(C)C(OC5OC(C)C(O)C(O)C5O)CC(O)C45CC35CCC12C` (stereo not drawn) [Macrophyllosaponin C], the figures for the inhibition at 100 µg/mL at AChE [1] (setting [6]) and at BChE [2] were 12.4 ± 1.4% and 16.5 ± 1.57%, respectively.

For the compound `CC(CCC(OC1OCC(O)C(O)C1OC1OCC(O)C(O)C1O)C(C)(C)O)C1CCC2(C)C3C(O)CC4C(C)(C)C(OC5OC(C)C(O)C(O)C5O)CC(O)C45CC35CCC12C` (stereo not drawn) [Macrophyllosaponin D], the inhibition at 100 µg/mL is 4.31 ± 1.32% at AChE [1] (setting [6]) and 10.1 ± 0.78% at BChE [2].

For `COC(=O)[C@@H](Cc1ccc(O)c(O)c1)OC(=O)/C=C/c1ccc(O)c(O)c1` [Methyl rosmarinate], the inhibition at 100 µg/mL on AChE [1] (setting [6]) was found to be 16.8 ± 3.84%; on BChE [2] (setting [6]), 82.74 ± 0.62%. Also, at BChE [2], the IC50 is 111 µM.

`CC1CCC2(OC1)OC1CC3C4CCC5CC(O)CCC5(C)C4CC(O)C3(C)C1C2C` (stereo not drawn) [Rockogenin]: the results for the inhibition at 100 µg/mL at AChE [1] and on BChE [2] were 5.29 ± 0.52% and 15.2 ± 2.56%, respectively.

With `C[C@@H]1CC[C@@]2(OC1)O[C@H]1C[C@H]3[C@@H]4CC[C@@H]5C[C@@H](O)CC[C@]5(C)[C@H]4CC[C@]3(C)[C@H]1[C@@H]2C` [Smilagenin], the IC50 against AChE [1] was 104 µM; at AChE [4] (read-out: IC50 AChE, compound isolated from Asparagus racemosus), 9.9 µM; on BChE [5] (compound isolated from Asparagus racemosus), 5.4 µM. The results for the inhibition at 100 µg/mL at AChE [1] (setting [6]) and on BChE [2] were 62.4 ± 2.44% and 15 ± 3.01%, respectively.

Regarding `C[C@@H]1CC[C@@]2(OC1)O[C@H]1C[C@H]3[C@@H]4CC[C@H]5C[C@@H](O)CC[C@]5(C)[C@H]4CC[C@]3(C)[C@H]1[C@@H]2C` [Tigogenin], on AChE [1] (setting [6]), the “ChE Inhibition (Inhibition % ± S.D. at 100 µg/mL) AChE” value turned out to be 17.09 ± 0.69% and the inhibition at 100 µg/mL was determined as 17%. Also, the inhibition at 100 µg/mL at BChE [2] was found to be 22.2 ± 3.09%.

As for `C[C@@H]1O[C@@H](O[C@@H]2[C@@H](O)[C@H](OCCc3ccc(O)c(O)c3)O[C@H](CO)[C@H]2OC(=O)/C=C/c2ccc(O)c(O)c2)[C@H](O)[C@H](O)[C@H]1O` [Verbascoside], the inhibition at 100 µg/mL at AChE [1] (setting [6]) was 8.12 ± 1.49%; at BChE [2], 22.2 ± 2.54%. The IC50 on AChE [4] (Calceolaria talcana study, read-out: IC50 AChE (converted)) was 304 µM; at BChE [5] (Calceolaria talcana study) it was 170 µM. Also, the AChE inhibition on AChE [4] (at 100 μg/mL, from Pseuderanthemum carruthersii) is below 50%. Moreover, the “ChE inhibition (AChE)” value on AChE [4] (setting [7]) is listed as “below 30%”. The “inhibition against AChE” value on AChE [4] (isolated from Olea europea L.) is “no inhibition”. For the same compound, the “ChE inhibition (BChE)” value on BChE [5] (setting [7]) was “below 30%”. Moreover, the “inhibition against BChE” value at BChE [5] (isolated from Olea europea L.) is “no inhibition”.

Regarding Forsythoside B, the “ChE Inhibition (Inhibition % ± S.D. at 100 µg/mL) BChE” value at BChE [2] (setting [6]) amounted to 14.80 ± 2.31%. In addition, the AChE inhibition result at AChE [4] (Calceolaria talcana study) is listed as “no AChE inhibition”.

With tannic acid [reference compound], the “IC50 AChE” value in assay [3] was 0.10 µg/mL.
